“And” between values parts separate entries of the source, which are not always exact repeats. Equal values may be shown once. “Also recorded” adds a separate entry of the source. Read-outs that look alike come from different tables or passages of the source.
Columns and labels:
[1] = Pharmacokinetics in Sprague-Dawley rats (single dose i.v. and p.o.); type: in vivo, male Sprague-Dawley rats
Method: Pharmacokinetic studies were performed in male CD-1 (50 mg/kg i.p. or orally (p.o.)) or female nude mice (50 mg/kg i.v. or i.p.), male Sprague-Dawley rats (1, 5, 20 and 50 mg/kg i.v. and 100 mg/kg, p.o.), beagle dogs (20 mg/kg, i.v.) and cynomologus monkeys (20 mg/kg i.v.). Plasma TH302 concentrations were analyzed using a LC/MS method and the pharmacokinetic parameters computed using a noncompartmental method. Interspecies scaling was performed according to standard methods.
TH302 was dissolved in 50% PEG400/Saline to obtain a final concentration of 25 mg/mL, and then was further diluted to yield 25, 10, 2.5 and 0.5 mg/mL formulations of TH302 (pH The formulations were prepared just before dosing. The concentration of TH302 in dosing solution was confirmed by HPLC-UV. Male Sprague Dawley rats (body weight: 200 g to 230 g) were used in this study. Before the pharmacokinetic studies, animals were randomly assigned to four treatment groups cannulated in the carotid artery for serial blood sampling. All rats were administered a single intravenous bolus dose over one minute via the tail vein. The concentrations of TH302 in plasma were determined using a high performance liquid chromatography/mass spectrometry (HPLC/MS/MS) method. […]

[2] = test system: PC-3 human prostate cells; assay: PC-3 luciferase intracardiac metastasis model (bioluminescence); type: in vivo, nude mice
Method: Male nude mice were injected into their left ventricle with PC-3 human prostate cells (3×10^6) transfected with the gene for luciferase. The success of the intracardiac transfections was verified by a bioluminescence scan after the injection. On day 14, the mice with established bone tumor burden were randomized into four treatment groups (N=10): Taxotere® alone (20 mg/kg once a week for three weeks, i.v.), TH302 alone (50 mg/kg daily, 5 days a week for 3 weeks), combination treatment with both agents, and vehicle. Bioluminescence imaging was performed under anesthesia using an IVIS 50 optical imaging system.

[3] = rats, 1 mg/kg i.v. bolus, individual animals, 1 mg/kg
[4] = rats, 5 mg/kg i.v. bolus, individual animals, 5 mg/kg
[5] = rats, 20 mg/kg i.v. bolus, individual animals, 20 mg/kg
[6] = rats, 50 mg/kg i.v. bolus, individual animals, 50 mg/kg
[7] = TH302 alone 50 mg/kg daily, 5 days a week for 3 weeks, end of the study (day 43)

For Cn1c(COP(=O)(NCCBr)NCCBr)cnc1[N+](=O)[O-] [TH302], the MRT ([1]; male, Sprague-Dawley, rat, plasma, iv, 50 mg/kg, rats, 50 mg/kg i.v. bolus, MEAN, read-out: MRT) was 17.4 min, the AUC(0-inf) ([1]; male, Sprague-Dawley, rat, plasma, iv, 50 mg/kg, rats, 50 mg/kg i.v. bolus, individual animals) was 8830 ng·h/mL and the AUC(0-t) ([1]; male, Sprague-Dawley, rat, plasma, iv, 50 mg/kg, rats, 50 mg/kg i.v. bolus, individual animals, read-out: AUC(0-t)) was 8830 ng·h/mL. For the same compound, the clearance ([1]; male, Sprague-Dawley, rat, plasma, iv, 50 mg/kg, rats, 50 mg/kg i.v. bolus, individual animals, read-out: CL (converted)) was 94.3 mL/min/kg, the Cmax ([1]; male, Sprague-Dawley, rat, plasma, iv, 50 mg/kg, rats, 50 mg/kg i.v. bolus, individual animals, read-out: Cmax) was 37200 ng/mL and the MRT ([1]; male, Sprague-Dawley, rat, plasma, iv, 50 mg/kg, rats, 50 mg/kg i.v. bolus, individual animals, read-out: MRT) was 17.4 min. The Vd ([1]; male, Sprague-Dawley, rat, plasma, iv, 50 mg/kg, rats, 50 mg/kg i.v. bolus, individual animals, read-out: Vss) was 1.63 L/kg, the AUC ([1]; male, Sprague-Dawley, rat, plasma, iv, 50 mg/kg, rats, i.v. bolus, up to 8 mg/kg human equivalent daily dose, read-out: exposure of TH302, AUC) was about 8500 ng·h/mL and the clearance ([1]; male, Sprague-Dawley, rat, plasma, iv, rats, i.v. dose 1-50 mg/kg, range of means, read-out: Mean Cl) was 78.2 to 102 mL/min/kg. The Vd ([1]; male, Sprague-Dawley, rat, plasma, iv, rats, i.v. dose 1-50 mg/kg, range of means, read-out: mean Vss) was 1.67 to 5.09 L/kg, the half-life ([1]; male, Sprague-Dawley, rat, plasma, iv, rats, i.v. dose 1-50 mg/kg, range of means, read-out: mean terminal plasma t1/2) was 79.2 to 262 min and the Tmax ([1]; male, Sprague-Dawley, rat, plasma, iv, rats, 1 mg/kg i.v. bolus, individual animals) was 1.8 min. The Tmax ([1]; male, Sprague-Dawley, rat, plasma, iv, rats, 5 mg/kg i.v. bolus, individual animals) was 1.8 min, the Tmax ([1]; male, Sprague-Dawley, rat, plasma, iv, rats, 20 mg/kg i.v. bolus, individual animals) was 1.8 min and the Tmax ([1]; male, Sprague-Dawley, rat, plasma, iv, rats, 50 mg/kg i.v. bolus, individual animals) was 1.8 min. The Vβ ([1]; rats, 1 mg/kg i.v. bolus, MEAN) was 13.55 L/kg, the “AUC(0-t)” value [1, 3] was 273.70 ng·h/mL and 202.22 ng·h/mL and the “AUC(0-∞)” value [1, 3] was 282.01 ng·h/mL and 203.34 ng·h/mL. The CL [1, 3] was 59.2 mL/min/kg, the Cmax [1, 3] was 990.12 ng/mL and 732.20 ng/mL and the MRT [1, 3] was 61.8 min. For the same compound, the T1/2 [1, 3] was 130 min and 131 min, the Vss [1, 3] was 2.82 L/kg and the Vβ [1, 3] was 14.19 L/kg and 11.03 L/kg and 15.45 L/kg. For the same compound, the Vβ ([1]; rats, 5 mg/kg i.v. bolus, MEAN) was 30.66 L/kg, the “AUC(0-t)” value [1, 4] was 868.22 ng·h/mL and the “AUC(0-∞)” value [1, 4] was 919.39 ng·h/mL. For the same compound, the CL [1, 4] was 90.7 mL/min/kg, the Cmax [1, 4] was 3803.81 ng/mL and the MRT [1, 4] was 27 min and 81.6 min. The T1/2 [1, 4] was 73.2 min and 377 min, the Vβ [1, 4] was 11.99 L/kg and 49.33 L/kg and the Vβ ([1]; rats, 20 mg/kg i.v. bolus, MEAN) was 41.04 L/kg. For the same compound, the “AUC(0-t)” value [1, 5] was 3380.61 ng·h/mL and 3597.80 ng·h/mL, the “AUC(0-∞)” value [1, 5] was 3387.13 ng·h/mL and 3618.51 ng·h/mL and the CL [1, 5] was 92.2 mL/min/kg. For the same compound, the Cmax [1, 5] was 12009.10 ng/mL and 15053.50 ng/mL, the MRT [1, 5] was 24.6 min and 22.2 min and the T1/2 [1, 5] was 564 min and 64.8 min and 159 min. The Vss [1, 5] was 1.68 L/kg, the Vβ [1, 5] was 92.86 L/kg and 9.16 L/kg and 21.10 L/kg and the Vβ ([1]; rats, 50 mg/kg i.v. bolus, MEAN) was 11.41 L/kg. For the same compound, the “AUC(0-t)” value [1, 6] was 8482.72 ng·h/mL and 8083.24 ng·h/mL, the “AUC(0-∞)” value [1, 6] was 8488.15 ng·h/mL and 8102.61 ng·h/mL and the CL [1, 6] was 98.2 mL/min/kg and 103 mL/min/kg. For the same compound, the Cmax [1, 6] was 37277.10 ng/mL and 32033.40 ng/mL, the MRT [1, 6] was 18 min and 15.6 min and the T1/2 [1, 6] was 46.2 min and 56.4 min and 134 min. The Vss [1, 6] was 1.68 L/kg and 1.70 L/kg, the Vβ [1, 6] was 6.28 L/kg and 7.99 L/kg and 19.94 L/kg and the “time of mean peak plasma concentration” value ([1]; rats, 100 mg/kg p.o., first sampled time point) was 15 min. For the same compound, the linearity of pharmacokinetics ([1]; rats, 1, 5, 20 and 50 mg/kg i.v.) was “linear pharmacokinetics”, the “toxicities (weight loss, deaths)” value ([2]; TH302 50 mg/kg daily 5 days a week for 3 weeks, Taxotere 20 mg/kg once a week for three weeks i.v., or both) was “minimal weight loss; also recorded: no toxicity beyond Taxotere® related toxicities” and the “reduction of bone metastases” value [2, 7] was 94%. The “reduction of soft tissue tumor burden” value [2, 7] was 95%.
